Legend:
DAZL and VASA = assay: Western blot of DAZL and VASA in human ES cells after silencing/overexpression; assay type: cell-based; details: human ES cells differentiated 14 days with BMPs
Method: (§1) To collect the adherently differentiated cells, cells were washed with 3 ml cold PBS without Ca^2+ and Mg^2+, then scraped from the plate in 1 ml PBS plus 2× protease inhibitors (Complete Mini, Roche) and transferred immediately to a 1.5-ml tube on ice. The PBS cell suspension was then spun at 5,000 r.p.m. in a microcentrifuge for 3 min and the supernatant was discarded. The cell pellet was resuspended with 200 ul RIPA buffer (50 mM Tris, 150 mM NaCl, 0.5% sodium deoxycholate, 1% NP-40, 0.1% SDS, pH 8) plus 2× protease inhibitors (Complete Mini, Roche). The cell pellet suspension was pipetted rigorously at least 10 times, then vortexed for 30 sec. The suspension was again spun down for 3 min at the same speed. The supernatant was measured for protein concentration and denatured at a 1:1 ratio with 2× Laemmli buffer at 95° C. for 5 min, then loaded onto either a 10% or 12% SDS-PAGE gel. The SDS-PAGE gels were run at 150 V for 1 h and transferred to a PVDF membrane for 1 h at 100 V in CAPS buffer (10 mM CAPS, 10% methanol, pH 11). Transferred blots were blocked in 5% non-fat milk for 1 h at room temperature. […]

[1] = test system: VASA-GFP+ population of human ES cells (H9, HSF1); assay: VASA-GFP reporter FACS of differentiated human ES cells (Example 1); assay type: cell-based; details: XX line (H9), 14 days
Method: 2.5 kb of human VASA upstream of the first codon was cloned into pENTR 5′-TOPO. EGFP was fused 1 kb downstream of the last codon of human VASA, and cloned into pENTR/D-TOPO. Cloned plasmids were recombined (Suter, D. M. et al. (2006) Stem Cells 24, 615-623) to create pLVGV. Lentiviral supernatant was produced, human ES cells were transduced overnight on matrigel in conditioned medium and subsequently selected with geneticin ([…]) for 7 days. Selected human ES cells were differentiated for the times indicated and harvested by brief treatment with collagenase IV and then TrypLEExpress (Invitrogen). The cell suspension was prepared in differentiation medium for FACS with a MoFlow or BD cell sorter.
Four human ES cell lines were used in this study: HSF1 (XY), HSF6 (XX), H1 (XY) and H9 (XX). Undifferentiated cultures of human ES cells were maintained on irradiated MEFs as previously described in Kee, K. et al (2006) Stem Cells Dev. 15: 831-837. Briefly, all cultures were grown at 37° C. with 5% CO2 in knockout serum replacer (KSR) plus bFGF medium (knockout DMEM, supplemented with 20% knockout serum replacer, 1 mM L-glutamine, 0.1 mM nonessential amino acids, 0.1 mM 2-mercaptoethanol, and 4 ng ml^−1 recombinant human bFGF (bFGF, R&D systems)). […]

DAZL = assay: shRNA silencing of DAZL-V5 / DAZL:GFP cotransfected in 293T cells; assay type: cell-based, human
Method: as §1

DAZ = assay: shRNA silencing of DAZ2-V5 and DAZ1-4 in 293T/293FT cells (Western); assay type: cell-based, human; details: for Protein level of DAZ2-V5: cotransfected
Method: All shRNAs targeting human DAZL, DAZ and BOULE were constructed using the Block-iT inducible H1 lentiviral system (Invitrogen). All shRNAs were first introduced into pENTR/H1/TO vectors and transferred into pLenti4/BLOCK-iT-DEST destination vectors (see below for sequence information). When shRNA was tested in 293FT cells for its efficacy of silencing, transient transfection without selection was carried out and cell lysate was collected after 24 h. After specific shRNA was chosen, viral supernatant was prepared as described for pLVGV. Subsequently, the viral supernatant was used to transduce human ES cells on matrigel as described above, except with zeocin selection (2 μg/ml) for 3 days for stable integration of the shRNA vector into human ES cells. Overexpression vectors were constructed by inserting the EF1μ, promoter, and DAZL, DAZ2 or BOULE cDNA into the p2k7bias vectors, selected with blasticidin (2 μg ml^−1) in culture for 3 days to ensure stable integration and subjected for each differentiation experiment. shRNA sequences were:
cDNA clones of DAZ1-4 (NCBI accession numbers: DAZ1, BC11492; DAZ2, NM_020363; DAZ3, BC113005; DAZ4, BC047480) were obtained from ATCC, PCR amplified, cloned into pENTR-D-TOPO vector, and subsequently cloned into pLenti4/TO/V5-DEST (Invitrogen). […] Co-transfection of the overexpression vector and shDAZ4 at the ratio of 1:1 and 1:2 into 293FT cells was carried out and all the lysates were collected after 24 h and loaded equally onto 10% SDS-PAGE gel.

[2] = test system: hESCs (H9) differentiating to germ cells; assay: qPCR gene expression in hESCs differentiated with BMPs in the presence of PAHs; assay type: cell-based, human
Method: (§2) A federally approved hESC line (H9, XX) was maintained and differentiated as previously described (see methods of Kee, K., et al. (2006) Stem Cells & Differentiation 15: 831-837, the disclosure of which is incorporated herein). Briefly, adherent differentiation began upon the addition of differentiation media containing 20% FBS (Hyclone) and supplemented with Bone Morphogenetic Proteins (BMPs) -4, -7, and -8b (R&D) reconstituted in 4 mM HCl/0.1% BSA and used at 50 ng/ml. DMBA (Sigma), ANF (Sigma) and DMBA-DHD(MRI) were dissolved in DMSO at a 1:1000 dilution before adding to the media to the indicated final concentrations.
Total RNA was extracted using the RNeasy kit (Qiagen) and cDNA prepared with SuperScriptIII (Invitrogen) according to the manufacturer's protocols using 1 μg RNA. The cDNA was subjected to a pre-amplification using 1.25 μl out of 20 μl total cDNA, 1 μl Platinum Taq (Invitrogen), 5 μl CellsDirect 2× Reaction Buffer and 2.5 μl 0.2× Taqman (Applied Biosystem) probe mix. PCR cycle program for pre-amplification is: 95° C., 10 minutes; 95° C., 15 seconds and 60° C., 4 minutes for 14 cycles. Assays and samples are prepared according to the Fluidigm protocol and run on a 48×48 chip. BioMark (Fluidigm) program was used to obtain delta Ct value before imported into Excel file sheet to calculate delta-delta Ct value=2^(CtGene−CtHousekeeping genes). The delta-delta Ct value is then normalized to the control of each experiment to obtain the final normalized expression level. All delta-delta Ct values were calculated using four housekeeping genes (GAPDH, CTNNB1, ACTS, CENTRIN) except in experiment in FIG. 35, which only used GAPDH as housekeeping gene in a regular qPCR reaction in 7300 Real Time PCR System (Applied Biosystems).

mouse fetal germ cells = mouse fetal germ cells incubated with PAHs; cited from earlier work
[3] = test system: VASA:GFP+ PGCs from hESCs; assay: VASA:GFP reporter FACS of hESCs with DMBA-DHD and shAHR (Example 3); assay type: cell-based, human
Method: as §2
shRNA was used to target AHR by the BLOCK-IT™ Inducible H1 Lentiviral RNAi System (Invitrogen). Double stranded oligos were generated, ligated into the pENTR vector and transfected into 293FT cells for initial screening. After 24 hours, RNA was harvested using the RNeasy kit and cDNA generated using SuperScriptIII with 1 μg total RNA input. The destination lentiviral vector was generated by recombining the pENTR vector with the pLenti4/BLOCK-it-DEST vector via the Gateway technology according to the manufacturer's protocol. Lentiviral supernatant carrying the pLenti4/BLOCK-it-DEST-shAHR vector was generated by co-transfection with 10 μg of each vector with 10 μg Vsvg and 15 μg Δ8.9 into 293FT cells grow on T175 plates. Supernatant was harvested after three days and either used immediately for transduction of hESCs or frozen at −80° C. until further usage. hESCs prepared for transduction were plated to 50% confluency on matrigel coated plates. Polybrene was added to the lentivirus supernatant for a final concentration of 8 μg/ml. […]
Single cell suspensions were prepared by incubating differentiated hESCs in Collagenase Type IV (1 mg/ml) for ten minutes, followed by ten minutes in TrypLE (Invitrogen). […] Luminescence was measured after 1 hour of incubation at room temperature with Fluostar Optima (BMG).

[4] = test system: VASA:GFP+ and VASA:GFP− cells; assay: Caspase 3/7 apoptosis assay in FACS-sorted cells; assay type: cell-based, human; details: 1 μM DMBA-DHD
Method: Single cell suspensions were prepared by incubating differentiated hESCs in Collagenase Type IV (1 mg/ml) for ten minutes, followed by ten minutes in TrypLE (Invitrogen). Cell pellet was resuspended in 0.5 ml differentiated media and passed through a 40 μm strainer. Cell suspensions were then subjected to FACS analysis with BD FACSAria system (BD). Cells were sorted for either VASA:GFP+ or VASA:GFP−. 1000 cells of each group were collected in 100 μl PBS and mixed with 100 μl of Caspase-Glo 3/7 reagent according to manufacturer protocol (Promega). Luminescence was measured after 1 hour of incubation at room temperature with Fluostar Optima (BMG).

shDAZL4: shRNA 5′-GCAGAAGATAGTAGAATCACA-3′, SEQ ID NO: 27
Expression of DAZL and VASA (DAZL and VASA): significantly reduced
VASA-GFP+ population [1]: reduced
Silencing of DAZL:GFP fusion protein (DAZL): most effective silencer for DAZL

shDAZL2: shRNA 5′-GCATATCCTACTTACCCAAAT-3′, SEQ ID NO: 25
Expression of DAZL and VASA (DAZL and VASA): significantly reduced
Silencing of DAZL:GFP fusion protein (DAZL): most effective

shDAZ4: shRNA 5′-GCATTTCCTGCTTATCCAAAT-3′, SEQ ID NO: 34
Silencing of DAZ1-4 proteins (DAZ; 293FT cells): all four DAZ proteins were silenced
Protein level of DAZ2-V5 (DAZ): significantly decreased

shDAZ1: shRNA 5′-GCAAATCCTGAGACTCCAAAC-3′, SEQ ID NO: 31
Protein level of DAZ2-V5 (DAZ): significantly decreased

shDAZ5: shRNA 5′-GCATTTCCTGCTTATCCAAGT-3′, SEQ ID NO: 35
Protein level of DAZ2-V5 (DAZ): significantly decreased

O=c1cc(-c2ccccc2)oc2c1ccc1ccccc12 [ANF, α-napthoflavone]
Rescue of KDR and NES expression ([2]; ANF added with DMBA-DHD): no rescue
Expression of germ cell markers VASA, DAZL and PRDM1 ([2]; ANF added with DMBA-DHD, relative to DMBA-DHD addition alone): increased
BAX expression ([2]; ANF added with DMBA-DHD, relative to DMBA-DHD alone): decreased
Fetal germ cell toxicity of PAHs (mouse fetal germ cells): could be prevented

Cc1c2ccccc2c(C)c2c3c(ccc12)C(O)C(O)C=C3 (centres unmarked) [DMBA-DHD, DMBA-3,4-dihydrodiol]
Number of PGCs out of 20,000 differentiated hESCs ([3]; hESCs carrying shLacZ, 1 μM DMBA-DHD, control 908): ~626
Percentage of VASA:GFP+ PGCs ([3]; hESCs carrying shLacZ, 14 days BMP induction, 1 μM DMBA-DHD, untreated control 4.5%): 3.1%
Reduction in human PGCs ([3]; in the presence of DMBA-DHD): less than two-fold
Apoptosis activity (Caspase 3/7) ([4]; VASA:GFP+ cells): significantly increased
Apoptosis activity (Caspase 3/7) ([4]; VASA:GFP− cells): not in the VASA:GFP− cells
Potency relative to DMBA (decrease in germ cell specific gene expression) ([2]; 0.1 μM DMBA-DHD comparable to 1 μM DMBA, 1 μM DMBA-DHD more potent than 10 μM DMBA): at least one log
Expression of AFP and CDX2 ([2]; hESCs differentiated with BMPs): not reproducibly reduced
Expression of somatic markers KDR and NES ([2]; hESCs differentiated with BMPs): did not significantly alter
Increase of BAX expression ([2]; hESCs differentiated with BMPs, vs DMSO control): 20 fold

shDAZ3: shRNA 5′-GCCACGTCCTTTGGTAGTTAA-3′, SEQ ID NO: 33
Protein level of DAZ2-V5 (DAZ): significantly decreased

Source: patent US9920300B2, “Induction of germ cells from pluripotent cells” (The Board of Trustees of the Leland Stanford Junior …, priority 2009, dated 2018)
